Measured values from paper PMC9502202, “Discovery of Novel Potential Aphid Repellents: Geranic Acid Esters Containing Substituted Aromatic Rings” (Molecules, 2022).

tested on: Acyrthosiphon pisum (A. pisum); assay: Repellent activity test, glass two-way olfactometer; assay type: in vivo; conditions: 0.25 h, wingless A. pisum, 2.5 µL of 2000 mg/L test solution in n-hexane on filter paper, 15 min, RP = (C − T)/(C + T) × 100%, mean ± standard deviation, read-out: RP (%) repellency proportion
Procedure: The behavioral response of A. pisum to 5a-5x was investigated with a glass two-way olfactometer, and the aphid-repellent activity was carried out according to our previously published method. The aphids were reared in a growth chamber (at 23 ± 1 °C, with a […]:8D photoperiod and 70% relative humidity) at China Agricultural University. The compounds were weighed, dissolved in n-hexane, and prepared into a test solution with a concentration of 2000 mg/L using n-hexane as a blank control. About 20 wingless A. pisum were placed through the release port and each arm was pumped with 0.2 L/min of activated carbon and distilled water. One arm was chosen as the “treatment” (T) arm and another was the “control” (C) arm. For the “T” arm, 2.5 μL of test solutions were applied to filter paper strips (1 cm^2 diameter), and 2.5 μL of n-hexane was applied for the “C” arm. The number of aphids in each direction was recorded for 15 min at 2 cm from the center of the horizontal arm. The olfactometer was washed with ethanol, the filter paper was replaced, and the two arms were switched and the experiment was repeated four times for each treatment. The repellent activity was evaluated using RP as the formula RP = (C - T)/(C+T) × 100%, where T and C mean the number of aphids in the treatment and control arm, respectively. The RP values of the derivatives were statistically analyzed with SPSS 24.0 (SPSS Inc., Chicago, IL, USA) using a one-way analysis of variance (ANOVA), followed by a Duncan's test with a significance set at p < 0.05.

Q: Which pest or weed control at 2000 µg/mL does the source give for CC(C)=CCC/C(C)=C/C(=O)Oc1ccccc1F [5k, 2-fluorophenyl (E)-3,7-dimethylocta-2,6-dienoate] here?
A: 28.8 ± 1.31%

Q: With CC(C)=CCC/C(C)=C/C(=O)Oc1ccccc1 [5a] as the compound, how does the pest or weed control at 2000 µg/mL read?
A: 38.1 ± 2.38%

Q: Which pest or weed control at 2000 µg/mL does the source give for CC(C)=CCC/C(C)=C/COC(=O)c1c(F)cccc1F [CAU15, reference compound] here?
A: 18.3%

Q: CC(C)=CCC/C(C)=C/C(=O)Oc1ccc(OC(F)(F)F)cc1 [5v, 4-(trifluoromethoxy)phenyl (E)-3,7-dimethylocta-2,6-dienoate] was tested. Which pest or weed control at 2000 µg/mL did it give?
A: 24.9 ± 2.52%

Q: How did the pest or weed control at 2000 µg/mL turn out when CC(C)=CCC/C(C)=C/C(=O)Oc1ccc(Cl)cc1 [5j, 4-chlorophenyl (E)-3,7-dimethylocta-2,6-dienoate] was run?
A: 38.7 ± 2.75%

Q: With COc1cccc(OC(=O)/C=C(\C)CCC=C(C)C)c1 [5f, 3-methoxyphenyl (E)-3,7-dimethylocta-2,6-dienoate] as the compound, how does the pest or weed control at 2000 µg/mL read?
A: 55.6%

Q: For CC(C)=CCC/C(C)=C/C(=O)Oc1ccc([N+](=O)[O-])cc1 [5p, 4-nitrophenyl (E)-3,7-dimethylocta-2,6-dienoate], which pest or weed control at 2000 µg/mL is on record?
A: 39.8 ± 1.95%

Q: With CC(C)=CCC/C(C)=C/C(=O)Oc1cccc([N+](=O)[O-])c1 [5o, 3-nitrophenyl (E)-3,7-dimethylocta-2,6-dienoate] as the compound, how does the pest or weed control at 2000 µg/mL read?
A: 41.5 ± 1.49%

Q: How did the pest or weed control at 2000 µg/mL turn out when CC(C)=CCC/C(C)=C/C(=O)Oc1ccccc1OC(F)(F)F [5t, 2-(trifluoromethoxy)phenyl (E)-3,7-dimethylocta-2,6-dienoate] was run?
A: 28.2 ± 1.55%

Q: For COc1ccccc1OC(=O)/C=C(\C)CCC=C(C)C [5e, 2-methoxyphenyl (E)-3,7-dimethylocta-2,6-dienoate], which pest or weed control at 2000 µg/mL is on record?
A: 37.4 ± 2.08%

Q: With CC(C)=CCC/C(C)=C/C(=O)Oc1ccc(Br)cc1 [5s, 4-bromophenyl (E)-3,7-dimethylocta-2,6-dienoate] as the compound, how does the pest or weed control at 2000 µg/mL read?
A: 43.4%

Q: Which pest or weed control at 2000 µg/mL does the source give for CC(C)=CCC/C(C)=C/C(=O)Oc1ccccc1[N+](=O)[O-] [5n, 2-nitrophenyl (E)-3,7-dimethylocta-2,6-dienoate] here?
A: 23.4 ± 2.35%

Q: How did the pest or weed control at 2000 µg/mL turn out when CC(C)=CCC/C(C)=C/C(=O)Oc1cccc(OC(F)(F)F)c1 [5u, 3-(trifluoromethoxy)phenyl (E)-3,7-dimethylocta-2,6-dienoate] was run?
A: 38 ± 2.54%

Q: With COc1ccc(OC(=O)/C=C(\C)CCC=C(C)C)cc1 [5g, 4-methoxyphenyl (E)-3,7-dimethylocta-2,6-dienoate] as the compound, how does the pest or weed control at 2000 µg/mL read?
A: 43.6 ± 3.09%

Q: How did the pest or weed control at 2000 µg/mL turn out when CC(C)=CCC/C(C)=C/C(=O)Oc1c(F)cccc1F [5w, 2,6-difluorophenyl (E)-3,7-dimethylocta-2,6-dienoate] was run?
A: 36.7%

Q: Which pest or weed control at 2000 µg/mL does the source give for CC(C)=CCC/C(C)=C/C(=O)Oc1cccc(F)c1 [5l, 3-fluorophenyl (E)-3,7-dimethylocta-2,6-dienoate] here?
A: 34.9 ± 3.3%

Q: CC(C)=CCC/C(C)=C/C(=O)Oc1c(Br)cccc1Br [5x, 2,6-dibromophenyl (E)-3,7-dimethylocta-2,6-dienoate] was tested. Which pest or weed control at 2000 µg/mL did it give?
A: 43.9 ± 2.09%

Q: Which pest or weed control at 2000 µg/mL does the source give for CC(C)=CCC/C(C)=C/C(=O)Oc1cccc(Br)c1 [5r, 3-bromophenyl (E)-3,7-dimethylocta-2,6-dienoate] here?
A: 51.2 ± 1.94%

Q: Which pest or weed control at 2000 µg/mL does the source give for CC(C)=CCC/C(C)=C/COC(=O)c1ccc(Br)cc1 [CAU14, reference compound] here?
A: 33.5%

Q: CC(C)=CCC/C(C)=C/C(=O)Oc1ccc(F)cc1 [5m, 4-fluorophenyl (E)-3,7-dimethylocta-2,6-dienoate] was tested. Which pest or weed control at 2000 µg/mL did it give?
A: 27.9 ± 2.85%

Q: For CC(C)=CCC/C(C)=C/C(=O)Oc1cccc(Cl)c1 [5i, 3-chlorophenyl (E)-3,7-dimethylocta-2,6-dienoate], which pest or weed control at 2000 µg/mL is on record?
A: 51.4 ± 1.2%

Q: With CC(C)=CCC/C(C)=C/C(=O)Oc1ccccc1Br [5q, 2-bromophenyl (E)-3,7-dimethylocta-2,6-dienoate] as the compound, how does the pest or weed control at 2000 µg/mL read?
A: 42.7 ± 1.36%

Q: Which pest or weed control at 2000 µg/mL does the source give for CC(C)=CCC/C(C)=C/C(=O)Oc1cccc(C)c1 [5c, 3-tolyl (E)-3,7-dimethylocta-2,6-dienoate] here?
A: 39.8 ± 1.95%

Q: How did the pest or weed control at 2000 µg/mL turn out when CC(C)=CCC/C(C)=C/C(=O)Oc1ccc(C)cc1 [5d, 4-tolyl (E)-3,7-dimethylocta-2,6-dienoate] was run?
A: 38.7 ± 2.75%

Q: With CC(C)=CCC/C(C)=C/C(=O)Oc1ccccc1C [5b, 2-tolyl (E)-3,7-dimethylocta-2,6-dienoate] as the compound, how does the pest or weed control at 2000 µg/mL read?
A: 35.2 ± 2.65%

Q: How did the pest or weed control at 2000 µg/mL turn out when CC(C)=CCC/C(C)=C/C(=O)Oc1ccccc1Cl [5h, 2-chlorophenyl (E)-3,7-dimethylocta-2,6-dienoate] was run?
A: 31.8 ± 1.31%
